Measurements from US9980943B2, “Methods of treating muscular dystrophy” (BOARD OF REGENTS OF THE NEVADA SYSTEM OF HIGHER EDUCATION, …, priority 2013, dated 2018).

Columns and labels:
Type in all cases: cell-based, mouse
[1] = system: α7 integrin (LacZ reporter in α7βgal+/− myoblasts); test: Myoblast α7+/LacZ integrin FDG assay (Burkin assay in myoblasts, 96-well); details: for Burkin Assay in Myoblasts, signal relative to DMSO: α7+/LacZ myoblasts, 96-well
[2] = system: α7 integrin (LacZ reporter in α7+/LacZ myotubes); test: Myotube α7 integrin FDG assay (Burkin assay in myotubes, 96-well); details: for Burkin Assay in Myotubes, value relative to DMSO: SU9516 analogs, 96-well, N=3-6
[3] = system: β-galactosidase in CMV-LacZ C2C12 myoblasts; test: CMV-LacZ secondary screen in C2C12 myoblasts (β-Gal stabilizing assay); details: for CMV-LACZ in Myoblasts (β-galactosidase activity relative to DMSO): CMV-LacZ C2C12 myoblasts; for CMV-LACZ in Myoblasts, value relative to DMSO: SU9516 analogs, C2C12 CMV-LacZ, N=2
Method in brief: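 First, C2C12 myoblasts were transfected with a linearized CMV-LACZ vector and clonal lines selected by FDG β-gal assay. Then cells were exposed to compounds at 0.5, 1, 5, 10, 20 and 40 μM in 96-well format, two replicates each, and β-gal measured.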

[4] = system: β-galactosidase in CMV-LacZ C2C12 myotubes; test: CMV-LacZ secondary screen in C2C12 myotubes (β-Gal stabilizing assay); details: for CMV-LACZ in Myotubes, signal relative to DMSO: C2C12 CMV-LacZ myotubes, fold relative to DMSO; for CMV-LACZ in Myotubes, value relative to DMSO: SU9516 analogs, C2C12 CMV-LacZ, N=2
Method in brief: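 β-Gal level was the read-out, measured in a clonal C2C12 line expressing LacZ from a CMV promoter. Dose-response curves used six concentrations, 0.5 μM up to 40 μM, with duplicate points.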

[5] = Mus musculus, Myoblast, 48 h, read-out: Burkin Assay in Myoblasts, value relative to DMSO

## CCCS(=O)(=O)c1nc(S(=O)(=O)c2ccc(C)cc2)c(N2CCCC2)s1 [MLS000113985-01]
[1]; 0.5 uM
  Burkin Assay in Myoblasts, signal relative to DMSO: 1.065
[1]; 1 uM
  Burkin Assay in Myoblasts, signal relative to DMSO: 1.018
[1]; 5 uM
  Burkin Assay in Myoblasts, signal relative to DMSO: 0.7898
[1]; 10 uM
  Burkin Assay in Myoblasts, signal relative to DMSO: 0.4804
[1]; 20 uM
  Burkin Assay in Myoblasts, signal relative to DMSO: 0.1779
[1]; 40 uM
  Burkin Assay in Myoblasts, signal relative to DMSO: 0.122
[2]; 0.5 uM
  Burkin Assay in Myotubes, α7 integrin LacZ reporter signal relative to DMSO: 0.9882
[2]; 1 uM
  Burkin Assay in Myotubes, α7 integrin LacZ reporter signal relative to DMSO: 1.037
[2]; 5 uM
  Burkin Assay in Myotubes, α7 integrin LacZ reporter signal relative to DMSO: 0.9919
[2]; 10 uM
  Burkin Assay in Myotubes, α7 integrin LacZ reporter signal relative to DMSO: 0.9925
[2]; 20 uM
  Burkin Assay in Myotubes, α7 integrin LacZ reporter signal relative to DMSO: 0.7655
[2]; 40 uM
  Burkin Assay in Myotubes, α7 integrin LacZ reporter signal relative to DMSO: 0.6679
[3]; 0.5 uM
  CMV-LACZ in Myoblasts (β-galactosidase activity relative to DMSO): 0.9809
[3]; 1 uM
  CMV-LACZ in Myoblasts (β-galactosidase activity relative to DMSO): 1.0049
[3]; 5 uM
  CMV-LACZ in Myoblasts (β-galactosidase activity relative to DMSO): 1.0836
[3]; 10 uM
  CMV-LACZ in Myoblasts (β-galactosidase activity relative to DMSO): 0.9187
[3]; 20 uM
  CMV-LACZ in Myoblasts (β-galactosidase activity relative to DMSO): 0.2126
[3]; 40 uM
  CMV-LACZ in Myoblasts (β-galactosidase activity relative to DMSO): 0.1841
[4]; 0.5 uM
  CMV-LACZ in Myotubes, signal relative to DMSO: 1.0629
[4]; 1 uM
  CMV-LACZ in Myotubes, signal relative to DMSO: 1.0638
[4]; 5 uM
  CMV-LACZ in Myotubes, signal relative to DMSO: 1.0031
[4]; 10 uM
  CMV-LACZ in Myotubes, signal relative to DMSO: 1.0241
[4]; 20 uM
  CMV-LACZ in Myotubes, signal relative to DMSO: 1.0541
[4]; 40 uM
  CMV-LACZ in Myotubes, signal relative to DMSO: 1.0482

## Cc1cccc(Sc2nc(-c3ccccc3)ccc2C#N)c1 [MLS000325736-01]
[1]; 0.5 uM
  Burkin Assay in Myoblasts, signal relative to DMSO: 0.7757
[1]; 1 uM
  Burkin Assay in Myoblasts, signal relative to DMSO: 0.7875
[1]; 5 uM
  Burkin Assay in Myoblasts, signal relative to DMSO: 1.423
[1]; 10 uM
  Burkin Assay in Myoblasts, signal relative to DMSO: 1.17
[1]; 20 uM
  Burkin Assay in Myoblasts, signal relative to DMSO: 0.912
[1]; 40 uM
  Burkin Assay in Myoblasts, signal relative to DMSO: 0.8854
[2]; 0.5 uM
  Burkin Assay in Myotubes, α7 integrin LacZ reporter signal relative to DMSO: 0.9135
[2]; 1 uM
  Burkin Assay in Myotubes, α7 integrin LacZ reporter signal relative to DMSO: 0.8017
[2]; 5 uM
  Burkin Assay in Myotubes, α7 integrin LacZ reporter signal relative to DMSO: 1.027
[2]; 10 uM
  Burkin Assay in Myotubes, α7 integrin LacZ reporter signal relative to DMSO: 1.168
[2]; 20 uM
  Burkin Assay in Myotubes, α7 integrin LacZ reporter signal relative to DMSO: 0.6582
[2]; 40 uM
  Burkin Assay in Myotubes, α7 integrin LacZ reporter signal relative to DMSO: 0.6972
[3]; 0.5 uM
  CMV-LACZ in Myoblasts (β-galactosidase activity relative to DMSO): 0.7862
[3]; 1 uM
  CMV-LACZ in Myoblasts (β-galactosidase activity relative to DMSO): 0.9135
[3]; 5 uM
  CMV-LACZ in Myoblasts (β-galactosidase activity relative to DMSO): 0.9758
[3]; 10 uM
  CMV-LACZ in Myoblasts (β-galactosidase activity relative to DMSO): 1.0696
[3]; 20 uM
  CMV-LACZ in Myoblasts (β-galactosidase activity relative to DMSO): 1.0111
[3]; 40 uM
  CMV-LACZ in Myoblasts (β-galactosidase activity relative to DMSO): 1.0537
[4]; 0.5 uM
  CMV-LACZ in Myotubes, signal relative to DMSO: 0.9263
[4]; 1 uM
  CMV-LACZ in Myotubes, signal relative to DMSO: 0.8968
[4]; 5 uM
  CMV-LACZ in Myotubes, signal relative to DMSO: 0.9630
[4]; 10 uM
  CMV-LACZ in Myotubes, signal relative to DMSO: 0.9324
[4]; 20 uM
  CMV-LACZ in Myotubes, signal relative to DMSO: 0.8244
[4]; 40 uM
  CMV-LACZ in Myotubes, signal relative to DMSO: 0.9889

## O=C1Nc2ccccc2/C1=C/c1c[nH]cn1 [MLS000327715-01]
[1]; [5]
  fold induction at 0.5 µM: 1.38
  fold induction at 1 µM: 1.09
  fold induction at 5 µM: 1.15
  fold induction at 10 µM: 1.03
  fold induction at 20 µM: 0.902
  fold induction at 40 µM: 0.578
[2]; 0.5 uM
  Burkin Assay in Myotubes, value relative to DMSO: 0.8838
[2]; 1 uM
  Burkin Assay in Myotubes, value relative to DMSO: 1.025
[2]; 5 uM
  Burkin Assay in Myotubes, value relative to DMSO: 1.302
[2]; 10 uM
  Burkin Assay in Myotubes, value relative to DMSO: 1.115
[2]; 20 uM
  Burkin Assay in Myotubes, value relative to DMSO: 1.192
[2]; 40 uM
  Burkin Assay in Myotubes, value relative to DMSO: 1.119
[3]; 0.5 uM
  CMV-LACZ in Myoblasts, value relative to DMSO: 1.2294
[3]; 1 uM
  CMV-LACZ in Myoblasts, value relative to DMSO: 1.1731
[3]; 5 uM
  CMV-LACZ in Myoblasts, value relative to DMSO: 0.9664
[3]; 10 uM
  CMV-LACZ in Myoblasts, value relative to DMSO: 1.0060
[3]; 20 uM
  CMV-LACZ in Myoblasts, value relative to DMSO: 1.3181
[3]; 40 uM
  CMV-LACZ in Myoblasts, value relative to DMSO: 1.0648
[4]; 0.5 uM
  CMV-LACZ in Myotubes, value relative to DMSO: 1.1762
[4]; 1 uM
  CMV-LACZ in Myotubes, value relative to DMSO: 1.0562
[4]; 5 uM
  CMV-LACZ in Myotubes, value relative to DMSO: 1.1289
[4]; 10 uM
  CMV-LACZ in Myotubes, value relative to DMSO: 0.9983
[4]; 20 uM
  CMV-LACZ in Myotubes, value relative to DMSO: 1.2200
[4]; 40 uM
  CMV-LACZ in Myotubes, value relative to DMSO: 1.4871
